Reference: patent US8436011B2, “Pyridinopyridinone derivatives, preparation thereof and therapeutic use thereof” (Sanofi, priority 2008, dated 2013)
Counter-ions that a name gives are not always drawn.

| melting point [°C] | SMILES |
| --- | --- |
| 228 | CCN1CCCC1CNC(=O)Cc1ccc(-c2ccc3c(=O)c(C(=O)NC)c(N)n(CC)c3n2)cc1Cl (stereo not drawn) (as salt: HCl) [compound 57, 2-amino-7-[3-chloro-4-(2-{[(1-ethylpyrrolidin-2-yl)methyl]amino}-2-oxoethyl)phenyl]-1-ethyl-N-methyl-4-oxo-1,4-dihydro-1,8-naphthyridine-3-carboxamide] |
| 213 | CCN1CCCC1CNC(=O)Cc1cccc(-c2ccc3c(=O)c(C(=O)NC)c(N)n(CC)c3n2)c1 (stereo not drawn) (as salt: HCl) [compound 62, 2-amino-1-ethyl-7-[3-(2-{[(1-ethylpyrrolidin-2-yl)methyl]amino}-2-oxoethyl)phenyl]-N-methyl-4-oxo-1,4-dihydro-1,8-naphthyridine-3-carboxamide] |
| 176 | CCn1c(N)c(C(=O)NC)c(=O)c2ccc(-c3cccc(CC(=O)Nc4ccccn4)c3)nc21 (as salt: HCl) [compound 63, 2-amino-1-ethyl-N-methyl-4-oxo-7-{3-[2-oxo-2-(pyrid-2-ylamino)ethyl]-phenyl}-1,4-dihydro-1,8-naphthyridine-3-carboxamide] |
| 242 | CCn1c(N)c(C(=O)NC)c(=O)c2ccc(-c3ccc(CCNc4ccccn4)cc3)nc21 (as salt: HCl) [compound 64, 2-amino-1-ethyl-N-methyl-4-oxo-7-{4-[2-(pyrid-2-ylamino)ethyl]phenyl}-1,4-dihydro-1,8-naphthyridine-3-carboxamide] |
| 218 | CCN1CCCC1CNC(=O)CCc1ccc(-c2ccc3c(=O)c(C(=O)NC)c(N)n(CC)c3n2)cc1 (stereo not drawn) [compound 46, 2-amino-1-ethyl-7-[4-(3-{[(1-ethylpyrrolidin-2-yl)methyl]amino}-3-oxopropyl)phenyl]-N-methyl-4-oxo-1,4-dihydro-1,8-naphthyridine-3-carboxamide] |
| 300 | CCN1CCCC1CNC(=O)Cc1ccc(-c2ccc3c(=O)c(C(=O)NC)c(N)n(CC(F)(F)F)c3n2)cc1 (stereo not drawn) [compound 49, 2-amino-7-[4-(2-{[(1-ethylpyrrolidin-2-yl)methyl]amino}-2-oxoethyl)-phenyl]-N-methyl-4-oxo-1-(2,2,2-trifluoroethyl)-1,4-dihydro-1,8-naphthyridine-3-carboxamide] |
| 233 | CCN1CCC[C@@H]1CNC(=O)Cc1ccc(-c2ccc3c(=O)c(C(=O)NC)c(N)n(CC(C)C)c3n2)cc1 [compound 53, 2-amino-7-{4-[2-({[(2R)-1-ethylpyrrolidin-2-yl]methyl}amino)-2-oxoethyl]-phenyl}-N-methyl-1-(2-methylpropyl)-4-oxo-1,4-dihydro-1,8-naphthyridine-3-carboxamide] |
| 214 | CCN1CCC[C@@H]1CNC(=O)Cc1nc(-c2ccc3c(=O)c(C(=O)NC)c(N)n(CC)c3n2)cs1 [compound 55, 2-amino-1-ethyl-7-{2-[2-({[(2R)-1-ethylpyrrolidin-2-yl]methyl}amino)-2-oxoethyl]-1,3-thiazol-4-yl}-N-methyl-4-oxo-1,4-dihydro-1,8-naphthyridine-3-carboxamide] |
| 253 | CCN1CCC[C@@H]1CNC(=O)Cc1ccc(-c2ccc3c(=O)c(C(=O)NC)c(N)n(CC)c3n2)c(F)c1 [compound 56, 2-amino-1-ethyl-7-{4-[2-({[(2R)-1-ethylpyrrolidin-2-yl]methyl}amino)-2-oxoethyl]-2-fluorophenyl}-N-methyl-4-oxo-1,4-dihydro-1,8-naphthyridine-3-carboxamide] |
| 275 | CCN1CCCC1CNC(=O)Cc1ccc(-c2ccc3c(=O)c(C(=O)NC)c(N)n(CC)c3n2)cc1F (stereo not drawn) [compound 58, 2-amino-7-[3-fluoro-4-(2-{[(1-ethylpyrrolidin-2-yl)methyl]amino}-2-oxoethyl)phenyl]-1-ethyl-N-methyl-4-oxo-1,4-dihydro-1,8-naphthyridine-3-carboxamide] |
| 277 | CCN1CCCC1CNC(=O)Cc1ccc(-c2ccc3c(=O)c(C(=O)NC)c(N)n(CC)c3n2)cc1C (stereo not drawn) [compound 59, 2-amino-7-[3-methyl-4-(2-{[(1-ethylpyrrolidin-2-yl)methyl]amino}-2-oxoethyl)phenyl]-1-ethyl-N-methyl-4-oxo-1,4-dihydro-1,8-naphthyridine-3-carboxamide] |
| 178 | CCN1CCCC1CNC(=O)Cc1ccc(-c2ccc3c(=O)c(C(=O)NC)c(N)n(CC)c3n2)c(C)c1 (stereo not drawn) [compound 61, 2-amino-1-ethyl-7-[4-(2-{[(1-ethylpyrrolidin-2-yl)methyl]amino}-2-oxoethyl)-2-methylphenyl]-N-methyl-4-oxo-1,4-dihydro-1,8-naphthyridine-3-carboxamide] |

The next lines start with the compound.

| SMILES | melting point [°C] |
| --- | --- |
| CCn1c(N)c(C(=O)NC)c(=O)c2ccc(-c3ccc(CC(=O)NC[C@H]4CCCN4CC(F)F)cn3)nc21 (as salt: HCl) [compound 34, 2-amino-7-{5-[2-({[(2R)-1-(2,2-difluoroethyl)pyrrolidin-2-yl]methyl}amino)-2-oxoethyl]pyrid-2-yl}-1-ethyl-N-methyl-4-oxo-1,4-dihydro-1,8-naphthyridine-3-carboxamide] | 260 |
| CCn1c(N)c(C(=O)NC)c(=O)c2ccc(-c3ccc(CC(=O)NCc4cncn4C)cc3)nc21 (as salt: HCl) [compound 36, 2-amino-1-ethyl-N-methyl-7-[4-(2-{[(1-methyl-1H-imidazol-5-yl)methyl]amino}-2-oxoethyl)phenyl]-4-oxo-1,4-dihydro-1,8-naphthyridine-3-carboxamide] | 270 |
| CCn1c(N)c(C(=O)NC)c(=O)c2ccc(-c3ccc(CC(=O)NCCc4cccnc4)cc3)nc21 (as salt: HCl) [compound 37, 2-amino-1-ethyl-N-methyl-4-oxo-7-(4-{2-oxo-2-[(2-pyrid-3-ylethyl)amino]-ethyl}phenyl)-1,4-dihydro-1,8-naphthyridine-3-carboxamide] | 222 |
| CCn1c(N)c(C(=O)NC)c(=O)c2ccc(-c3ccc(CC(=O)NCCCN4CCOCC4)cc3)nc21 (as salt: HCl) [compound 38, 2-amino-1-ethyl-N-methyl-7-(4-{2-[(3-morpholin-4-ylpropyl)amino]-2-oxoethyl}phenyl)-4-oxo-1,4-dihydro-1,8-naphthyridine-3-carboxamide] | 196 |
| CCN1CCCC1CNC(=O)Cc1csc(-c2ccc3c(=O)c(C(=O)NC)c(N)n(CC)c3n2)n1 (stereo not drawn) (as salt: HCl) [compound 43, 2-amino-1-ethyl-7-[4-(2-{[(1-ethylpyrrolidin-2-yl)methyl]amino}-2-oxoethyl)-1,3-thiazol-2-yl]-N-methyl-4-oxo-1,4-dihydro-1,8-naphthyridine-3-carboxamide] | 228 |
| CCn1c(N)c(C(=O)NC)c(=O)c2ccc(-c3ccc(CC(=O)NC[C@H]4CCCN4CCF)cc3)nc21 (as salt: hydrochloride) [compound 27, 2-amino-1-ethyl-7-{4-[2-({[(2R)-1-(2-fluoroethyl)pyrrolidin-2-yl]methyl}-amino)-2-oxoethyl]phenyl}-N-methyl-4-oxo-1,4-dihydro-1,8-naphthyridine-3-carboxamide] | 180 |
| CCn1c(N)c(C(=O)NC)c(=O)c2ccc(-c3ccc(CC(=O)NCCOC)cc3)nc21 [compound 9, 2-amino-1-ethyl-7-(4-{2-[(2-methoxyethyl)amino]-2-oxoethyl}phenyl)-N-methyl-4-oxo-1,4-dihydro-1,8-naphthyridine-3-carboxamide] | 262 |
| CCn1c(N)c(C(=O)NC)c(=O)c2ccc(-c3ccc(CC(=O)NC4CC4)cc3)nc21 [compound 10, 2-amino-7-{4-[2-(cyclopropylamino)-2-oxoethyl]phenyl}-1-ethyl-N-methyl-4-oxo-1,4-dihydro-1,8-naphthyridine-3-carboxamide] | > 260 |
| CCn1c(N)c(C(=O)NC)c(=O)c2ccc(-c3ccc(CC(=O)NC(C)C)cc3)nc21 [compound 11, 2-amino-1-ethyl-N-methyl-7-(4-{2-[(1-methylethyl)amino]-2-oxoethyl}-phenyl)-4-oxo-1,4-dihydro-1,8-naphthyridine-3-carboxamide] | 315 |
| CCn1c(N)c(C(=O)NC)c(=O)c2ccc(-c3ccc(CC(=O)Nc4cnccn4)cc3)nc21 [compound 13, 2-amino-1-ethyl-N-methyl-4-oxo-7-{4-[2-oxo-2-(pyrazin-2-ylamino)ethyl]-phenyl}-1,4-dihydro-1,8-naphthyridine-3-carboxamide] | 290 |
| CCN1CCC[C@H]1CNC(=O)Cc1ccc(-c2ccc3c(=O)c(C(=O)NC)c(N)n(CC)c3n2)cc1 [compound 15, 2-amino-1-ethyl-7-{4-[2-({[(2S)-1-ethylpyrrolidin-2-yl]methyl}amino)-2-oxoethyl]phenyl}-N-methyl-4-oxo-1,4-dihydro-1,8-naphthyridine-3-carboxamide] | 262 |
| CCn1c(N)c(C(=O)NC)c(=O)c2ccc(-c3ccc(CC(=O)Nc4ccccn4)nc3)nc21 [compound 21, 2-amino-1-ethyl-N-methyl-4-oxo-7-{6-[2-oxo-2-(pyrid-2-ylamino)-ethyl]pyrid-3-yl}-1,4-dihydro-1,8-naphthyridine-3-carboxamide] | 266 |
| CCn1c(N)c(C(=O)NC)c(=O)c2ccc(-c3ccc(CC(=O)NC[C@H]4CCCN4S(C)(=O)=O)cc3)nc21 [compound 28, 2-amino-1-ethyl-N-methyl-7-{4-[2-({[(2R)-1-(methylsulfonyl)pyrrolidin-2-yl]methyl}amino)-2-oxoethyl]phenyl}-4-oxo-1,4-dihydro-1,8-naphthyridine-3-carboxamide] | > 260 |
| CCn1c(N)c(C(=O)NC)c(=O)c2ccc(-c3ccc(CC(=O)NC[C@H]4CCCN4CC(F)(F)F)cc3)nc21 [compound 30, 2-amino-1-ethyl-N-methyl-4-oxo-7-{4-[2-oxo-2-({[(2R)-1-(2,2,2-trifluoroethyl)pyrrolidin-2-yl]methyl}amino)ethyl]phenyl}-1,4-dihydro-1,8-naphthyridine-3-carboxamide] | > 260 |
| CCn1c(N)c(C(=O)NC)c(=O)c2ccc(-c3ccc(CC(=O)NCCc4cccn4C)cc3)nc21 [compound 42, 2-amino-1-ethyl-N-methyl-7-[4-(2-{[2-(1-methyl-1H-pyrrol-2-yl)-ethyl]amino}-2-oxoethyl)phenyl]-4-oxo-1,4-dihydro-1,8-naphthyridine-3-carboxamide] | 252 |
